According to PubChem BioAssay AID1626 (SRMLSC, 2009):

Test system: M. tuberculosis H37Rv growth inhibition
Assay: M. tuberculosis H37Rv growth inhibitors, H37Rv strain (AID 1626)
Conditions: for IC90: measured here: IC90 against H37Rv; for CC50: measured here: Vero cell cytotoxicity

| Structure (SMILES) | IC50 | IC90 | CC50 |
| --- | --- | --- | --- |
| Cc1nn2c(NCCCN(C)C)c3c(nc2c1-c1ccccc1)CCC3 | 45.7 µM | 50.1 µM | 23.2 µM |
| Cc1cccc(CN2C(=O)[C@@H]3Cc4c([nH]c5ccccc45)C(C)(C)N3C2=O)c1 | 8.69 µM | 14.3 µM | > 40 µM |
| O=C(c1cc2cc3ccc(Cl)cc3nc2o1)N1CCC2(CC1)OCCO2 | 3.56 µM | 7.22 µM | – |
| O=C(Oc1ccc2cc(Br)ccc2c1)c1cccnc1 | 1.38 µM | > 100 µM | > 40 µM |
| Cn1cnnc1SCc1ccc(-c2ccc(Br)cc2)o1 | – | > 100 µM | > 40 µM |
| O=C(Nc1nnc(C2CC2)s1)c1ccccn1 | 2.75 µM | 3.68 µM | 15.6 µM |
| O=C1C(NS(=O)(=O)c2cccs2)=C(N2CCN(c3cccc(C(F)(F)F)c3)CC2)C(=O)c2ccccc21 | 4.12 µM | 7.38 µM | > 40 µM |
| Cc1nn(-c2ccccc2)c(Cl)c1CN(C(=O)CCl)c1ccc(Cl)cc1 | 13.5 µM | 31.3 µM | 1.82 µM |
| CCOC(=O)c1ccc(NC(=O)CCc2nc(-c3ccc(Cl)cc3)no2)cc1 | 0.898 µM | 18.4 µM | – |
| O=C(/C=C/c1ccco1)Nc1nc(-c2ccccn2)cs1 | 0.446 µM | 3.54 µM | > 40 µM |
| C#CCOCCOCCOCCNc1nc(N2CCN(C(=O)[C@H](Cc3ccc(O)cc3)n3cc([C@@H](N)C(C)CC)nn3)CC2)nc(N2CCN(C(=O)[C@H](Cc3cc4ccccc4[nH]3)n3cc([C@@H](N)CC(C)C)nn3)CC2)n1 (stereo partly drawn) | 7.36 µM | 21.5 µM | – |
| Cc1ccc(C(C(=O)Nc2ccc3c(c2)OCO3)N(C)C(=O)/C=C\c2ccc3c(c2)OCO3)cc1 (stereo not drawn) | 45.5 µM | > 100 µM | – |
| Cc1cnc(C(=O)Nc2nnc(SCc3c(Cl)cccc3Cl)s2)cn1 | 8.19 µM | > 100 µM | 35.5 µM |
| Cc1cccc(OCc2nnc(SCC(=O)OC3CCCCC3)o2)c1 | 1.25 µM | 5.46 µM | – |
| CCOC(=O)c1ccc(NC(=O)Cn2cccc2)cc1 | – | > 100 µM | – |
| Cc1ccccc1-n1nnc2c(=O)oc3ccccc3c21 | 4.48 µM | > 100 µM | – |
| N#Cc1c(SCC(N)=O)nsc1SCc1ccccc1Cl | 12.1 µM | 14.5 µM | – |
| Cc1ccn2c(Nc3ccccc3)c(-c3ccccn3)nc2c1 | 2.88 µM | 3.3 µM | 2.12 µM |
| O=C(CCc1nc(-c2cccs2)no1)Nc1cnc2ccccc2c1 | – | > 100 µM | – |
| O=C(CSc1nc2ccccc2o1)Nc1nc(-c2ccccc2)c(-c2ccccc2)s1 | 10.1 µM | > 100 µM | > 40 µM |
| Cc1csc(NC(=O)CSc2ccc(-c3ccccn3)nn2)n1 | 5.48 µM | 6.15 µM | > 40 µM |

| Structure (SMILES) | IC50 | IC90 | CC50 |
| --- | --- | --- | --- |
| COc1ccc(NC(C#N)c2ccccc2OCc2ccccc2)cc1 (stereo not drawn) | 69.8 µM | > 100 µM | – |
| Nc1nc(N)c2cc(Sc3ccc4ccccc4c3)ccc2n1 | 1.61 µM | 3.16 µM | 1.01 µM |
| CCCCOC(=O)c1ccc(OC(=O)c2cccnc2)cc1 | 7.04 µM | > 100 µM | > 40 µM |
| Cc1cc(NC(=O)c2sccc2C)n(-c2nc3ccccc3[nH]2)n1 | < 0.391 µM | 18.1 µM | 31.2 µM |
| CC(C)c1nnc(NC(=O)c2c(O)c3cccc4c3n(c2=O)CCC4)s1 | 0.604 µM | 0.731 µM | 6.5 µM |
| Cc1ccc(CSc2nnc(CCCCCNC(=O)OC(C)(C)C)o2)cc1 | 11.7 µM | 13.6 µM | – |
| CCc1ccc(NC(=O)CSc2ccccn2)cc1 | 22.1 µM | > 100 µM | – |
| COc1ccc(-c2nnc(NC(=O)C3=COCCO3)o2)cc1 | 12.7 µM | 19.7 µM | > 40 µM |
| O=C(CSc1nnc(-c2ccccc2Br)o1)N1CCc2ccccc2C1 | 2.32 µM | 3.38 µM | – |
| CCOC(=O)c1cc(-c2csc(COc3ccccc3)n2)on1 | 1.84 µM | 35.2 µM | – |
| Cc1cc(NC2CCCCC2)nc(NCc2ccccc2)n1 | 10.3 µM | 13.2 µM | 18.2 µM |
| CCCn1c(NC(=O)c2cccc(C)c2C)nc2ccccc21 | 1 µM | 3.63 µM | 24.7 µM |
| CCc1ccc(NC(=O)c2cnc(N3CCN(c4ccccn4)CC3)c3ccccc23)cc1 | 0.444 µM | 5.71 µM | > 40 µM |
| CCOc1ccc(N=CC2=C(O)CC(C)(C)CC2=O)cc1 | – | > 100 µM | – |
| Cc1ccc(NS(=O)(=O)c2cc(NC(=O)c3ccc4c(c3)NC(=O)CS4)ccc2C)c(C)c1 | 11.1 µM | > 100 µM | > 40 µM |
| O=C(CNCc1ccccc1)Nc1ccc(Oc2ccccc2)cc1 | 13.2 µM | > 100 µM | – |
| Cc1cccc(CSc2nnc(CCCCCNC(=O)OC(C)(C)C)o2)c1 | 15.3 µM | 21.3 µM | > 40 µM |
| CCc1ccc(CCC(=O)Nc2ccc(C)c(C)c2)o1 | 14.8 µM | > 100 µM | – |
| Cc1ccccc1NC(=O)c1ccc(OCC(=O)Nc2ccccc2F)cc1 | 76 µM | > 100 µM | – |
| O=C(NC(=O)c1ccc(C(F)(F)F)cc1)Nc1ccc(-c2cnco2)cc1 | 49.6 µM | > 100 µM | > 40 µM |
| Nc1cnn(Cc2ccc(F)cc2)c1 | – | > 100 µM | – |

| Structure (SMILES) | IC50 | IC90 | CC50 |
| --- | --- | --- | --- |
| CCCCCCOC(=O)c1ccc(NC(=O)c2cc(OC)c(OC)c(OC)c2Br)cc1 | 5.27 µM | 8.11 µM | > 40 µM |
| CCOC(=O)CSc1nc(N)c(C#N)c(-c2cccs2)c1C#N | 1.59 µM | 3.27 µM | – |
| CCOC(=O)C1(CCc2ccccc2)CCN(Cc2ccccn2)CC1 | 19.7 µM | > 100 µM | – |
| O=C(Nc1nnc(-c2ccc(F)cc2)o1)c1cccc([N+](=O)[O-])c1 | 5.68 µM | 14.8 µM | 12.4 µM |
| CC(=O)c1sc(NC(=O)c2cc(-c3ccccc3)nn2-c2ccccc2)nc1C | 27.7 µM | > 100 µM | > 40 µM |
| Cn1cnc([N+](=O)[O-])c1S(=O)(=O)c1cccc(Cl)c1 | 10.9 µM | 11.8 µM | 18.7 µM |
| O=[N+]([O-])c1ccc(-c2ccc(/C=N/O)o2)cc1 | – | > 100 µM | – |
| O=C(Nc1cccnc1)c1cc2cc(Br)ccc2oc1=O | – | > 100 µM | – |
| O=C(Nc1ncc(Cc2ccccc2)s1)c1cccs1 | 49 µM | > 100 µM | > 40 µM |
| c1ccc(-c2cc(-c3ccncc3)nc3ccc4ccccc4c23)cc1 | – | – | > 40 µM |
| Cc1ccc(-c2nc(NCc3ccco3)c3ccccc3n2)cc1 | 9.38 µM | 16.2 µM | > 40 µM |
| OC(CN1CCN(Cc2ccccc2)CC1)Cn1c2ccccc2c2ccccc21 (stereo not drawn) | 16.5 µM | 22.9 µM | > 40 µM |
| O=C(CCN1C(=O)C2CCCCC2C1=O)Nc1nc(-c2ccc(F)c(F)c2)cs1 (stereo not drawn) | 47.5 µM | > 100 µM | – |
| COC(=O)CCSc1cc(NCCOC(C)=O)c([N+](=O)[O-])c2nonc12 | 16.1 µM | 40.3 µM | – |
| CCC(=O)OCCNc1cc(Sc2nccn2C)c2nonc2c1[N+](=O)[O-] | 20.2 µM | 27.4 µM | 18.3 µM |
| CC(C)(C)c1ccc(OC(=O)c2ccc3snnc3c2)cc1 | 5.94 µM | > 100 µM | – |
| Nc1nnc(Sc2ncccc2[N+](=O)[O-])s1 | 9.58 µM | 12.9 µM | – |
| Cc1cc(NC(=O)c2cc(-c3ccncc3)nc3c(C)cccc23)no1 | 48.1 µM | 74.3 µM | 12.9 µM |
| Cc1ccccc1-c1cc(C(=O)Nc2nc3c(s2)CCCC3)c2ccccc2n1 | 4.41 µM | 12.7 µM | > 40 µM |
| CCOc1ccc(N2CC(=O)Nc3ccccc3NCC2=O)cc1 | 12.5 µM | > 100 µM | – |
| CCCCCc1cc(=O)oc2c(C(CCN3CCCC(C)C3)c3ccc(N(C)C)cc3)c(OC)cc(OC)c12 (stereo not drawn) | 5.6 µM | 6.31 µM | 16.5 µM |

| Structure (SMILES) | IC50 | IC90 | CC50 |
| --- | --- | --- | --- |
| CCOC(=O)c1ccc(NC(=O)Nc2ncccc2C)cc1 | – | – | > 40 µM |
| Cc1ccc(NC(=O)N2CCC(c3nc4c(nnn4Cc4cccc(Cl)c4)c(=O)[nH]3)CC2)cc1 | 5.13 µM | 6.62 µM | – |
| O/N=C/c1ccc2ccccc2c1 | – | > 100 µM | – |
| O=C(COc1ccc(Nc2ccccc2)cc1)OCC(=O)N1CCCCC1 | 19.5 µM | > 100 µM | – |
| COc1cc(CNCc2ccccn2)ccc1OCc1ccc(Cl)cc1Cl | 6.04 µM | 9.96 µM | > 40 µM |
| CC(=O)/C=C(\C)Nc1ccccc1O | 0.992 µM | 2.44 µM | > 40 µM |
| COCCN=C1Sc2nc3ccc(C)cc3cc2CN1Cc1cccs1 | 10.6 µM | 13.8 µM | – |
| COc1ccc(N2Cc3ccccc3C2)cc1Cl | – | > 100 µM | – |
| O=S(=O)(c1ccc(Cl)c(Cl)c1)c1snnc1-c1ccccc1 | 2.71 µM | 5.42 µM | 3.84 µM |
| O=C(CSc1ccc([N+](=O)[O-])cn1)Nc1ccc2c(c1)OCCO2 | 51.3 µM | > 100 µM | – |
| OC(CNCCC1C=Nc2ccccc21)Cn1c2ccc(Cl)cc2c2cc(Cl)ccc21 (stereo not drawn) | 1.82 µM | 2.03 µM | 5.96 µM |
| N=C(N)c1ccc(OCCCCCOc2ccc(C(=N)N)cc2)cc1 | 1.51 µM | 1.72 µM | > 40 µM |
| O=C(c1ccc(COc2ccc(Cl)cc2)o1)N1CCN(Cc2ccc3c(c2)OCO3)CC1 | 10.8 µM | 21.9 µM | > 40 µM |
| Nc1nc(-c2ccccn2)nc(N)c1Cc1c(F)cccc1Cl | < 0.391 µM | 0.451 µM | 4.76 µM |
| CCC(=O)Nc1ccc2ccccc2c1 | 46.5 µM | > 100 µM | – |
| COc1ccc(-c2nsc(SCC(=O)NCC3CCCO3)n2)cc1 (stereo not drawn) | 2.25 µM | 5.2 µM | – |
| c1nc2n(n1)C1=C(CCCC1)C1(CCCCC1)N2 | 18.2 µM | > 100 µM | – |
| Clc1ccc(SCc2cc(N3CCOCC3)nc(-c3ccccn3)n2)cc1 | 8.83 µM | 41.6 µM | 12.2 µM |
| COC(=O)C1C(O)C(C)C(O)C(C)(O)/C=C\C=C(/C)C(=O)Nc2c(C)c(OC(C)=O)c3c(c2O)C(=O)C(C)=C2OCOC(=C23)/C(C)=C/C(C)(O)C(O)C(C)C1O (stereo not drawn) | 0.32 µM | 0.878 µM | – |
| O=C(Nc1ncc(Cc2ccc(C(F)(F)F)cc2)s1)c1ccc(-c2cccc([N+](=O)[O-])c2)o1 | 60.2 µM | > 100 µM | > 40 µM |
